Measured values taken from patent publication EP0414533A1, “Use of iodopropargyl esters of alpha-amino acid derivatives as antimicrobial agents” (ROHM AND HAAS COMPANY, priority 1989, dated 1991).
≈ marks a conversion by molar mass, not a printed value. Read-outs that look alike come from different tables or passages of the source.

Assays:
Format in all cases: cell-based
[1] = system: 7 FUNGI; assay: Microbicides broad spectrum secondary test against 7 fungi (Table V); set-up: key: 1= no growth; 0= growth of the indicated fungi at dose indicated in ppm; conditions: Mycophile agar, pH 5.0; for ANIG growth: Aspergillus niger; for APUL growth: Aureobasidium pullulans; for CRES growth: Cladosporium resinae; for GTRA growth: Gloeophyllum trabeum; for PFUN growth: Penicillium funiculosum; for RRUB growth: Rhodotorula rubra; for SSER growth: Sacharomyces cerevisiae
Method: In the case of fungi, the spores are harvested by pipetting water onto the slant and dislodging the spores with a sterile loop. The cell/spore suspension is standardized by controlling incubation time, temperature, and the volume of the diluent. The suspension is then used to inoculate the vessels containing the broth compound. […] The results of the minimum inhibitory concentration (MIC) tests of compounds of this invention are shown in Tables IIIa IIIb, IIIc, V, VI, VII, and VIII against the microorganisms shown in Table IX. [table]

[2] = system: THREE FUNGI; assay: MIC test against three fungi in Mycophile Broth, pH 5.0, read after 8 days (Table VII); conditions: 192 h, serial dilutions from 50 ppm, read after 8 days of incubation
[3] = system: Cochliobolus sativus (HEL); assay: In-vitro plant fungicide test; conditions: Bipolaris sorokiniana
[4] = system: 8 FUNGI; assay: Microbicides secondary test against 8 fungi on Mycophile Agar at pH 5.0 (Table VI); set-up: key: 1= no growth; 0= growth of the indicated fungi at dose indicated in ppm; conditions: for ANIG growth: Aspergillus niger; for APUL growth: Aureobasidium pullulans; for CGLO growth: Chaetomium globosum; for CRES growth: Cladosporium resinae; for GTRA growth: Gloeophyllum trabeum; for PFUN growth: Penicillium funiculosum; for RRUB growth: Rhodotorula rubra; for SSER growth: Sacharomyces cerevisiae
From the text: The results of the minimum inhibitory concentration (MIC) tests of compounds of this invention are shown in Tables IIIa IIIb, IIIc, V, VI, VII, and VIII against the microorganisms shown in Table IX.

[5] = system: Fusarium roseum (FUS); assay: In-vitro plant fungicide test; conditions: Fusarium sambucinum
[6] = system: PSH; assay: In-vitro plant fungicide test; conditions: Table IVb, read-out: % Control at (ppm) indicated PSH
[7] = system: COL; assay: In-vitro plant fungicide test; conditions: Table IVb, read-out: % Control at (ppm) indicated COL
[8] = Aspergillus niger, read-out: MIC ANIG
[9] = Aureobasidium pullulans, read-out: MIC APUL
[10] = Gloeophyllum trabeum, read-out: MIC GTRA
[11] = Table IVa, *=Phytotoxic, read-out: % Control at 25 ppm HEL
[12] = read-out: % Control at 25 ppm FUS, 25 ppm, Table IVa, *=Phytotoxic

O=C(CNC(=O)c1ccccc1)OCC#CI [Compound 29, N-benzoylglycine iodopropargyl ester]
ANIG growth ([1]; 0.2 PPM): 0
ANIG growth ([1]; 1 PPM): 0
ANIG growth ([1]; 5 PPM): 1
ANIG growth ([1]; 25 PPM): 1
APUL growth ([1]; 0.2 PPM): 0
APUL growth ([1]; 1 PPM): 0
APUL growth ([1]; 5 PPM): 1
APUL growth ([1]; 25 PPM): 1
CRES growth ([1]; 0.2 PPM): 0
CRES growth ([1]; 1 PPM): 0
CRES growth ([1]; 5 PPM): 1
CRES growth ([1]; 25 PPM): 1
GTRA growth ([1]; 0.2 PPM): 1
GTRA growth ([1]; 1 PPM): 1
GTRA growth ([1]; 5 PPM): 1
GTRA growth ([1]; 25 PPM): 1
PFUN growth ([1]; 0.2 PPM): 0
PFUN growth ([1]; 1 PPM): 0
PFUN growth ([1]; 5 PPM): 1
PFUN growth ([1]; 25 PPM): 1
RRUB growth ([1]; 0.2 PPM): 0
RRUB growth ([1]; 1 PPM): 0
RRUB growth ([1]; 5 PPM): 1
RRUB growth ([1]; 25 PPM): 1
SSER growth ([1]; 0.2 PPM): 0
SSER growth ([1]; 1 PPM): 0
SSER growth ([1]; 5 PPM): 1
SSER growth ([1]; 25 PPM): 1
MIC [2, 8]: 1.6 µg/mL (≈ 4.66 µM)
MIC [2, 9]: 12.5 µg/mL (≈ 36.4 µM)
MIC [2, 10]: 3.2 µg/mL (≈ 9.33 µM)
inhibition of growth at 25 ppm [3, 11]: 100%
ANIG growth ([4]; 0.2 PPM): 0
ANIG growth ([4]; 1.0 PPM): 1
ANIG growth ([4]; 2.5 PPM): 1
ANIG growth ([4]; 25 PPM): 1
APUL growth ([4]; 0.2 PPM): 0
APUL growth ([4]; 1.0 PPM): 0
APUL growth ([4]; 2.5 PPM): 0
APUL growth ([4]; 25 PPM): 1
CGLO growth ([4]; 0.2 PPM): 0
CGLO growth ([4]; 1.0 PPM): 0
CGLO growth ([4]; 2.5 PPM): 0
CGLO growth ([4]; 25 PPM): 1
CRES growth ([4]; 0.2 PPM): 0
CRES growth ([4]; 1.0 PPM): 0
CRES growth ([4]; 2.5 PPM): 0
CRES growth ([4]; 25 PPM): 1
GTRA growth ([4]; 0.2 PPM): 0
GTRA growth ([4]; 1.0 PPM): 1
GTRA growth ([4]; 2.5 PPM): 1
GTRA growth ([4]; 25 PPM): 1
PFUN growth ([4]; 0.2 PPM): 0
PFUN growth ([4]; 1.0 PPM): 0
PFUN growth ([4]; 2.5 PPM): 1
PFUN growth ([4]; 25 PPM): 1
RRUB growth ([4]; 0.2 PPM): 0
RRUB growth ([4]; 1.0 PPM): 0
RRUB growth ([4]; 2.5 PPM): 0
RRUB growth ([4]; 25 PPM): 1
SSER growth ([4]; 0.2 PPM): 0
SSER growth ([4]; 1.0 PPM): 0
SSER growth ([4]; 2.5 PPM): 0
SSER growth ([4]; 25 PPM): 1
inhibition of growth at 25 ppm [5, 12]: 100%

O=C(CN1C(=O)c2ccccc2C1=O)OCC#CI [Compound 30, N-phthaloylglycine iodopropargyl ester]
MIC [2, 8]: 12.5 µg/mL (≈ 33.9 µM)
MIC [2, 9]: 50 µg/mL (≈ 135 µM)
MIC [2, 10]: 6.2 µg/mL (≈ 16.8 µM)
inhibition of growth at 1.5 ppm ([6]; 1.5 ppm): 100%
inhibition of growth at 6 ppm ([6]; 6 ppm): 100%
inhibition of growth at 25 ppm ([6]; 25 ppm): 100%
inhibition of growth at 0.2 ppm ([6]; .2 ppm): 0%
inhibition of growth at 0.4 ppm ([6]; .4 ppm): 100%
inhibition of growth at 0.8 ppm ([6]; .8 ppm): 100%
inhibition of growth at 1.5 ppm ([7]; 1.5 ppm): 0%
inhibition of growth at 3 ppm ([7]; 3 ppm): 0%
inhibition of growth at 6 ppm ([7]; 6 ppm): 50%
inhibition of growth at 12 ppm ([7]; 12 ppm): 100%
inhibition of growth at 25 ppm ([7]; 25 ppm): 100%
inhibition of growth at 0.2 ppm ([7]; .2 ppm): 0%
inhibition of growth at 0.4 ppm ([7]; .4 ppm): 0%
inhibition of growth at 0.8 ppm ([7]; .8 ppm): 0%
inhibition of growth at 1.5 ppm ([3]; 1.5 ppm, Table IVb, read-out: % Control at (ppm) indicated HEL): 0%
inhibition of growth at 6 ppm ([3]; 6 ppm, Table IVb, read-out: % Control at (ppm) indicated HEL): 100%
inhibition of growth at 25 ppm [3, 11]: 100%
inhibition of growth at 25 ppm ([3]; Table IVb, read-out: % Control at (ppm) indicated HEL): 100%
inhibition of growth at 0.2 ppm ([3]; .2 ppm, Table IVb, read-out: % Control at (ppm) indicated HEL): 0%
inhibition of growth at 0.4 ppm ([3]; .4 ppm, Table IVb, read-out: % Control at (ppm) indicated HEL): 0%
inhibition of growth at 0.8 ppm ([3]; .8 ppm, Table IVb, read-out: % Control at (ppm) indicated HEL): 0%
ANIG growth ([4]; 0.2 PPM): 0
ANIG growth ([4]; 1.0 PPM): 0
ANIG growth ([4]; 2.5 PPM): 0
ANIG growth ([4]; 25 PPM): 1
APUL growth ([4]; 0.2 PPM): 0
APUL growth ([4]; 1.0 PPM): 0
APUL growth ([4]; 2.5 PPM): 0
APUL growth ([4]; 25 PPM): 1
CGLO growth ([4]; 0.2 PPM): 0
CGLO growth ([4]; 1.0 PPM): 0
CGLO growth ([4]; 2.5 PPM): 1
CGLO growth ([4]; 25 PPM): 1
CRES growth ([4]; 0.2 PPM): 0
CRES growth ([4]; 1.0 PPM): 0
CRES growth ([4]; 2.5 PPM): 0
CRES growth ([4]; 25 PPM): 1
GTRA growth ([4]; 0.2 PPM): 0
GTRA growth ([4]; 1.0 PPM): 0
GTRA growth ([4]; 2.5 PPM): 1
GTRA growth ([4]; 25 PPM): 1
PFUN growth ([4]; 0.2 PPM): 0
PFUN growth ([4]; 1.0 PPM): 0
PFUN growth ([4]; 2.5 PPM): 0
PFUN growth ([4]; 25 PPM): 1
RRUB growth ([4]; 0.2 PPM): 0
RRUB growth ([4]; 1.0 PPM): 0
RRUB growth ([4]; 2.5 PPM): 0
RRUB growth ([4]; 25 PPM): 1
SSER growth ([4]; 0.2 PPM): 0
SSER growth ([4]; 1.0 PPM): 0
SSER growth ([4]; 2.5 PPM): 1
SSER growth ([4]; 25 PPM): 1
inhibition of growth at 25 ppm [5, 12]: 100%
inhibition of growth at 1.5 ppm ([5]; read-out: % Control at (ppm) indicated FUS, 1.5 ppm, Table IVb): 0%
inhibition of growth at 3 ppm ([5]; read-out: % Control at (ppm) indicated FUS, 3 ppm, Table IVb): 100%
inhibition of growth at 6 ppm ([5]; read-out: % Control at (ppm) indicated FUS, 6 ppm, Table IVb): 100%
inhibition of growth at 12 ppm ([5]; read-out: % Control at (ppm) indicated FUS, 12 ppm, Table IVb): 100%
inhibition of growth at 25 ppm ([5]; read-out: % Control at (ppm) indicated FUS, 25 ppm, Table IVb): 100%
inhibition of growth at 0.2 ppm ([5]; read-out: % Control at (ppm) indicated FUS, .2 ppm, Table IVb): 0%
inhibition of growth at 0.4 ppm ([5]; read-out: % Control at (ppm) indicated FUS, .4 ppm, Table IVb): 0%
inhibition of growth at 0.8 ppm ([5]; read-out: % Control at (ppm) indicated FUS, .8 ppm, Table IVb): 0%
